# Assays:
# [1] = test system: JAK2 (TPO); experiment: PK derived JAK2 (TPO) inhibition by dose regimen
# Text: (§1) It is believed that this efficacy/side-effect profile may be due to the QD dose achieving maximal JAK1 signaling (tied to efficacy) with low JAK2 inhibition at the trough, as JAK2 signaling is tied to hematopoiesis. This hypothesis is supported by the PK derived JAK1 (IL-6) and JAK2 (TPO) inhibition data for the compound of Formula at various doses (Table 7).
# [2] = target: T1, human JAK1 (a.a. 837-1142) (Homo sapiens, UniProt P23458); experiment: In vitro JAK kinase assay (HTRF), JAK1; format: biochemical; conditions: measured at 1 mM ATP
# T1 construct: human JAK1 (a.a. 837-1142); His tag (N); made in house; host or cells: insect cells (baculovirus)
# Description: The compound of Formula I herein was tested for inhibitory activity of JAK targets according to the following in vitro assay described in Park et al., Analytical Biochemistry 1999, 269, 94-104. The catalytic domains of human JAK1 (a.a. 837-1142) and JAK2 (a.a. 828-1132) with an N-terminal His tag were expressed using baculovirus in insect cells and purified. The catalytic activity of JAK1 and JAK2 was assayed by measuring the phosphorylation of a biotinylated peptide. The phosphorylated peptide was detected by homogenous time resolved fluorescence (HTRF). IC50s of compounds were measured for each kinase in the 40 microL reactions that contain the enzyme, ATP and 500 nM peptide in 50 mM Tris (pH 7.8) buffer with 100 mM NaCl, 5 mM DTT, and 0.1 mg/mL (0.01%) BSA. For the 1 mM IC50 measurements, ATP concentration in the reactions was 1 mM. Reactions were carried out at room temperature for 1 hr and then stopped with 20 μL 45 mM EDTA, 300 nM SA-APC, 6 nM Eu-Py20 in assay buffer (Perkin Elmer, Boston, Mass.). Binding to the Europium labeled antibody took place for 40 minutes and HTRF signal was measured on a Fusion plate reader (Perkin Elmer, Boston, Mass.).
# [3] = test system: JAK1 (IL-6); experiment: PK derived JAK1 (IL-6) inhibition by dose regimen
# Text: as §1
# [4] = test system: patients with plaque psoriasis; experiment: Placebo controlled study in plaque psoriasis, 28 days (sPGA, PASI 50); format: in vivo, human
# Description: A double-blind (sponsor unblinded), randomized, placebo controlled study was conducted in approximately 48 subjects treated for 28 days. Eligibility requirements included: active plaque psoriasis for at least 6 months at screening; body surface area (BSA) of plaque psoriasis of ≥5%; psoriasis area and severity index (PASI) score of ≥5; static physician's global assessment (sPGA) score of ≥3; inadequate response to topical therapies; innovative design allowing rapid progress between doses, with conservative safety assessment. […] Once the 4th subject (block of 3 active 1 PBO) completed 28 days administration without a Grade 3 or higher AE, the next group of 12 subjects initiated treatment with the next highest dose; while the first 4 subjects in this group are treated for 28 days, the 1st group is filled 60 subjects with moderate to severe psoriasis were randomized. […] A sequential method of recruitment was used, increasing from the lowest dose to the highest, each after the completion of 28 days for the first four subjects in the previous dose. The results at 28 days are show in Table 8 (PASI 50 is Psoriasis Area and Severity Index). […] The 5 mg tofacitinib dose is the approved dosage level for RA for safety reasons in the US.
# [5] = test system: psoriasis; conditions: 5 mg; 12 weeks; cited from earlier work
# [6] = test system: RA; conditions: 5 mg BID; 3 months; cited from earlier work
# T1 sequence (P23458 849-1154): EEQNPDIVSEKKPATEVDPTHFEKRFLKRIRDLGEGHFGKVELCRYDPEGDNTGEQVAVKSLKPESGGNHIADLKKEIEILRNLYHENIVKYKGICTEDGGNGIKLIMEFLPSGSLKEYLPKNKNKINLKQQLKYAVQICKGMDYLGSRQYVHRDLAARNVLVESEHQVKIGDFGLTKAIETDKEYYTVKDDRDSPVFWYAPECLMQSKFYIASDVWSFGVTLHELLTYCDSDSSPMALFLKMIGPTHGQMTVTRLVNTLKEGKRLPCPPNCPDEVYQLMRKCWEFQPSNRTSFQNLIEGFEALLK
structure (smiles),measurement,setting,value
"N#CCC1(n2cc(-c3ncnc4[nH]ccc34)cn2)CN(C2CCN(C(=O)c3ccnc(C(F)(F)F)c3F)CC2)C1 [compound of Formula I, {1-{1-[3-fluoro-2-(trifluoromethyl)isonicotinoyl]piperidin-4-yl}-3-[4-(7H-pyrrolo[2,3-d]pyrimidin-4-yl)-1H-pyrazol-1-yl]azetidin-3-yl}acetonitrile]",Average TPO inhibition,[1]; 100 mg BID,11%
same,Trough TPO inhibition,[1]; 100 mg BID,2%
same,Average TPO inhibition,[1]; 100 mg QD,7%
same,Trough TPO inhibition,[1]; 100 mg QD,<1%
same,Average TPO inhibition,[1]; 200 mg BID,24%
same,Trough TPO inhibition,[1]; 200 mg BID,13%
same,Average TPO inhibition,[1]; 200 mg QD,11%
same,Trough TPO inhibition,[1]; 200 mg QD,<1%
same,Average TPO inhibition,[1]; 300 mg QD,18%
same,Trough TPO inhibition,[1]; 300 mg QD,1%
same,Average TPO inhibition,[1]; 400 mg BID,33%
same,Trough TPO inhibition,[1]; 400 mg BID,16%
same,Average TPO inhibition,[1]; 600 mg QD,36%
same,Trough TPO inhibition,[1]; 600 mg QD,4%
same,IC50,[2],≤ 5 nM
same,Average IL-6 inhibition,[3]; 100 mg BID,44%
same,Trough IL-6 inhibition,[3]; 100 mg BID,22%
same,Average IL-6 inhibition,[3]; 100 mg QD,30%
same,Trough IL-6 inhibition,[3]; 100 mg QD,7%
same,Average IL-6 inhibition,[3]; 200 mg BID,64%
same,Trough IL-6 inhibition,[3]; 200 mg BID,52%
same,Average IL-6 inhibition,[3]; 200 mg QD,39%
same,Trough IL-6 inhibition,[3]; 200 mg QD,11%
same,Average IL-6 inhibition,[3]; 300 mg QD,47%
same,Trough IL-6 inhibition,[3]; 300 mg QD,16%
same,Average IL-6 inhibition,[3]; 400 mg BID,69%
same,Trough IL-6 inhibition,[3]; 400 mg BID,56%
same,Average IL-6 inhibition,[3]; 600 mg QD,61%
same,Trough IL-6 inhibition,[3]; 600 mg QD,31%
same,% PASI 50,[4]; 100 mg BID (as headed),22.2%
same,% sPGA (clear or minimal),[4]; 100 mg BID (as headed),11.1%
same,Mean % change sPGA,[4]; 100 mg BID (as headed),−22.2%
same,% PASI 50,[4]; 200 mg BID,44.4%
same,% sPGA (clear or minimal),[4]; 200 mg BID,33.3%
same,Mean % change sPGA,[4]; 200 mg BID,−35.2%
same,% PASI 50,[4]; 200 mg QD,66.7%
same,% sPGA (clear or minimal),[4]; 200 mg QD,22.2%
same,Mean % change sPGA,[4]; 200 mg QD,−29.4%
same,% PASI 50,[4]; 600 mg QD,81.8%
same,% sPGA (clear or minimal),[4]; 600 mg QD,45.5%
same,Mean % change sPGA,[4]; 600 mg QD,−42.4%
C[C@@H]1CCN(C(=O)CC#N)C[C@@H]1N(C)c1ncnc2[nH]ccc12.O=C(O)CC(O)(CC(=O)O)C(=O)O [tofacitinib citrate],PASI 50 score,[5],65.3%
same,ACR20,[6],59%
same,ACR50,[6],31%
same,ACR70,[6],15%

# From patent US10561616B2, “Sustained release dosage forms for a JAK1 inhibitor” (Incyte Corporation, priority 2013, dated 2020)
